Assay results reported in PubChem BioAssay (NCI).
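Growth conditions: 96-well plates. Treatment: test compound, 48 hours, 5 concentrations. Analysis: linear interpolation between bracketing concentrations; unreached endpoints set to highest concentration. GI50 = concentration required for 50% inhibition of growth. TGI denotes the concentration required for complete inhibition of growth.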

Experiments:
Test in all cases: NCI tumour cell line growth inhibition, 48 h
[1] = test system: A549 NSCLC
[2] = test system: BT-549 breast
[3] = test system: HCC-2998 colon
[4] = test system: HOP-92 NSCLC
[5] = test system: NCI-H23 lung
[6] = test system: NCI-H522 lung
[7] = test system: SF-295 CNS
[8] = test system: SK-MEL-2 melanoma
[9] = test system: TK-10 renal
[10] = test system: NCI/ADR-RES ovarian

Compound	TGI [1] [µM]	TGI [2] [µM]	TGI [3] [µM]	TGI [4] [µM]	TGI [5] [µM]	TGI [6] [µM]	TGI [7] [µM]	TGI [8] [µM]	TGI [9] [µM]	GI50 [1] [µM]	GI50 [2] [µM]	GI50 [3] [µM]	GI50 [5] [µM]	GI50 [6] [µM]	GI50 [10] [µM]	TGI [10] [µM]	GI50 [7] [µM]	GI50 [8] [µM]	GI50 [9] [µM]
CCOC(=O)C(=Cc1ccc(Oc2ccccc2)cc1)C(=O)OCC	22.6	5.11	24	16.2	6.93	10.1	10.6	4.4	19.4										
CCC(=O)c1c(NOC2OC(COC(C)=O)C(OC(C)=O)C(OC(C)=O)C2OC(C)=O)nc(OC)n(C)c1=O (configuration not stated)	> 100		> 100		> 100	> 100	> 100	> 100	> 100										
CC(=O)c1ccc(NC(=O)C(=O)Nn2c(=S)[nH]c3ccccc3c2=O)cc1	> 100		> 100	> 100	> 100	> 100	> 100	> 100	> 100										
COC(=O)C1=C(C)NC(C)=C(C(=O)OC)C1/C=C(Cl)/C=C/c1ccccc1	> 100	55.7	27.2		41.6	72	38.6	50.4	65.9	28.8	21.6	14	21.3	21.7	18.4	44.3	17.3	13.4	22.7
C=C(Br)N(CC)CC	> 100		> 100	> 100	> 100	> 100	> 100	> 100	> 100										
Fc1ccccc1C1CC(c2ccc3ccccc3c2)=Nc2ccccc2S1 (configuration not stated)	> 100		> 100		> 100	> 100	> 100	> 100	> 100										
COc1ccc(/C(C#N)=C/c2ccc(OC)c(OC)c2)cc1	> 100		> 100	> 100	> 100	> 100	> 100	> 100	> 100							> 100			
CCCCS(=O)(=O)CCC(N)C(=O)O (configuration not stated)	> 100	> 100	> 100		> 100	> 100	> 100	> 100	> 100							> 100			
COC1OC(COCc2ccc(Cl)cc2)C(OCc2ccc(Cl)cc2)C1N=[N+]=[N-] (configuration not stated)	16		> 100	> 100	> 100	> 100	> 100	> 100	> 100										
CCCCCCCCCCCCCP(=O)(O)OCC	> 100		> 100	> 100	> 100	> 100	> 100	> 100	> 100										
O=C1C2C3C=CC(C2C(=O)N1COP(=O)(O)O)C1C2C(=O)N(COP(=O)(O)O)C(=O)C2C31 (configuration not stated)	> 100		> 100	> 100	> 100	> 100	> 100	> 100	> 100										
O=C(Cc1nc2ccccc2s1)Nc1cccc(C(F)(F)F)c1	45.4		29.4		30.2	28.4	30.7	33.8	36.1										
CN(C)CCNC(=O)c1cccc2c1nc(-c1ccccc1)c1ccccc12	15		15.9	9.24	20.1		18.7	23.6	14.4										
Cc1c(COc2cc(OCc3cccc(C#N)c3)c(CN3C[C@H](O)C[C@@H]3C(=O)O)cc2Cl)cccc1-c1ccc2c(c1)OCCO2	55.3	21.8	29.2		31	42.5	22.6	41.3	41.5	22.1	7.58	15.6	16.9	19.8	47.5	> 100	10.7	18.8	20.2
O=C(/C=C/c1cc([N+](=O)[O-])ccc1Cl)c1ccccc1	92.9	27.8	9.27		36.2	36.8	49.6	72.3	> 100	22	14.5	3.3	15.6	15	24.4	91.7	15.6	24.6	38.2
O=C(CCC(=O)C(C(=O)c1ccccc1)c1ccccc1)Nc1cccc(C(F)(F)F)c1 (configuration not stated)	> 100		> 100	> 100	> 100	> 100	> 100	> 100	> 100										
Cc1ccc(S(=O)(=O)OCC23CCC(CC2)C2CC23)cc1 (configuration not stated)	> 100		> 100	87.5	> 100		> 100		> 100										
CC1(C)Cc2cc(C(=O)O)c3c(c2C1=O)COCC3	> 100		> 100		> 100	> 100	> 100	> 100											
Cn1ccnc1C(=O)/C=C/c1ccccc1	11.5	8.48	5.38		25.4	14.9	29.1	17.1	19.1	2.98	3.63	2.36	3.76	3.38	3.11	8.95	11.4	3.63	5.83
CS(=O)(=O)N(N(CCCl)S(=O)(=O)c1ccccc1)S(C)(=O)=O	> 100		> 100	> 100	> 100	> 100	> 100	> 100	> 100										
COC(=O)CCC(=O)CC(=O)C(=O)Nc1c(Cl)cc([N+](=O)[O-])cc1Cl	> 100		> 100	> 100	> 100	> 100	> 100	> 100	> 100										
Nc1nc(-c2ccccc2)nc2c1[n+]([O-])c1ccccc1[n+]2[O-]	> 100	> 100	> 100		> 100	> 100	> 100	> 100	> 100							> 100			
